# Tests used:
# B16 murine melanoma [1] = experiment: In vivo B16 murine melanoma tumor model; set-up: species or system B6D2F1 mice; conditions: qd × 5; for T/C (%): mean survival treated/control; for # of Survivors: survived at least 60 days
# Method: B6D2F1 mice received interperitoneally (i.p.) inocula of B16 murine melanoma brei prepared from B16 tumors growing s.c. in mice (Day 0). On Day 1, mice were randomized into groups, with 20 mice in the control group and 10 mice in each treated group (except there were 8 mice in selected groups given compound 3-13. Treatment with drugs or vehicle control was started on Day 1.
# The mean survival times of all groups were calculated and results were expressed as mean survival of treated mice/mean survival of control mice (T/C)×100%. A “T/C” value of 150 means that the mice in the treated group lived 50% longer than those of the control group; this is sometimes referred to as the increase in life span, or ILS value.
# Mice that survived for at least 60 days were considered to be long-term survivors, or cures, in the B16 model. The universally accepted cut-off for activity in this model, which has been used for years by the NCI, is T/C=125. Conventional use of B16 over the years has set the following levels of activity:
# T/C>300, with long-term survivors=excellent, curative activity.
# colon tumor cells (HT29) = experiment: MTT cell growth inhibition, HT29 colon tumor cells; assay type: cell-based; conditions: 3-6 days incubation, read-out: IC50 Human Colon Carcinoma
# Method: (§1) The following cell culture tests were performed to test the toxicity of benzimidazole derivative compounds of the present invention on colon and melanoma tumor cells. The viability of the cells were tested by looking at MTT (3-[4,5-dimethylthiazol-2-yl]-2,5-diphenyltetrazolium bromide) reduction. MTT assay is a well known measure of cell viability.
# (§2) The colon tumor cells (HT29) and the melanoma cells (B16 murine melanoma) were seeded (1000-2000 cells) into each well of a 96-well microtiter plate and allowed to grow. Twenty-four hours later, increasing concentrations of each benzimidazole derivative were added to the plates and the cells were allowed to incubate for 3-6 days in the presence of the drugs. MTT reagent was then added to the wells and allowed to incubate for 4 hours at 37° C., after which the formazan metabolite was solubilized with acidic isopropanol and the absorbance was read. Experimental controls included blank wells to which no cells were added (zero point of formazan absorbance) and control wells to which no drug was added (highest level of formazan absorbance). Each drug concentration was tested in duplicate and the resulting average absorbance was plotted against drug concentration using the EZ-ED50 computer program on a personal computer interfaced to the microtiter plate reader. […] The IC50 value is then derived from this equation by EZ-ED50.
# B16 murine melanoma [2] = experiment: MTT cell growth inhibition, B16 melanoma cells; assay type: cell-based; conditions: 3-6 days incubation
# Method: as §1, §2
# Tubulin = experiment: Microtubule inhibition assay (tubulin polymerization, absorbance at 350 nm); assay type: biochemical, bovine; conditions: compound at 2 μM, after 30 minutes
# Method: The benzimidazole derivatives of this invention were evaluated for their ability to inhibit formation of microtubules, following the procedure of Luduena, R. F. and M. C. […] Microtubule polymerization was followed by performing the reaction in a cuvette and monitoring UV absorbance at 350 nm, allowing direct visualization of the time course of the polymerization.
SMILES,# of Toxic Deaths (B16 murine melanoma [1]; 50 mg/kg/i.p),Weight Change (Day 12) (B16 murine melanoma [1]; 50 mg/kg/i.p),T/C (%) (B16 murine melanoma [1]; 50 mg/kg/i.p),# of Survivors (B16 murine melanoma [1]; 50 mg/kg/i.p),# of Toxic Deaths (B16 murine melanoma [1]; 100 mg/kg/i.p),Weight Change (Day 12) (B16 murine melanoma [1]; 100 mg/kg/i.p),T/C (%) (B16 murine melanoma [1]; 100 mg/kg/i.p),# of Survivors (B16 murine melanoma [1]; 100 mg/kg/i.p),IC50 (colon tumor cells (HT29)),IC50 (B16 murine melanoma [2]),"Tubulin Polymerization Inhibition, % Inhibition (Tubulin)",# of Toxic Deaths (B16 murine melanoma [1]; 20 mg/kg/i.v),Weight Change (Day 12) (B16 murine melanoma [1]; 20 mg/kg/i.v),T/C (%) (B16 murine melanoma [1]; 20 mg/kg/i.v),# of Survivors (B16 murine melanoma [1]; 20 mg/kg/i.v),other results
COC(=O)Nc1nc2ccc(C(=O)OCC(C)CC(C)(C)C)cc2[nH]1 (stereo not drawn) [3-13],0,+12.5%,94%,0,0,+9.8%,75%,0,19 nM,4.6 nM,28%,–,–,–,–,# of Toxic Deaths (B16 murine melanoma [1]; 2.5 mg/kg/i.v): 0; Weight Change (Day 12) (B16 murine melanoma [1]; 2.5 mg/kg/i.v): +11.7%; T/C (%) (B16 murine melanoma [1]; 2.5 mg/kg/i.v): 92%; # of Survivors (B16 murine melanoma [1]; 2.5 mg/kg/i.v): 0; # of Toxic Deaths (B16 murine melanoma [1]; 5 mg/kg/i.v): 7; Weight Change (Day 12) (B16 murine melanoma [1]; 5 mg/kg/i.v): +3.6%; T/C (%) (B16 murine melanoma [1]; 5 mg/kg/i.v): 91%; # of Survivors (B16 murine melanoma [1]; 5 mg/kg/i.v): 0
CCC(C)COC(=O)c1ccc2nc(NC(=O)OC)[nH]c2c1 (stereo not drawn) [3-19],0,+9.6%,119%,0,0,+10.8%,124%,0,12 nM,48 nM,28%,0,+7.8%,106%,0,# of Toxic Deaths (B16 murine melanoma [1]; 40 mg/kg/i.v): 6; Weight Change (Day 12) (B16 murine melanoma [1]; 40 mg/kg/i.v): +2.5%; T/C (%) (B16 murine melanoma [1]; 40 mg/kg/i.v): 73%; # of Survivors (B16 murine melanoma [1]; 40 mg/kg/i.v): 0
COC(=O)Nc1nc2ccc(C(=O)OCCCCCl)cc2[nH]1 [Cpd. No. 3-1],0,+7.5%,132%,–,0,+12.9%,108%,0,10 nM,11 nM,28%,0,+6.3%,98%,0,"# of Toxic Deaths (B16 murine melanoma [1]; 10 mg/kg/i.v): 0; Weight Change (Day 12) (B16 murine melanoma [1]; 10 mg/kg/i.v): +9.3%; T/C (%) (B16 murine melanoma [1]; 10 mg/kg/i.v): 97%; # of Survivors (B16 murine melanoma [1]; 10 mg/kg/i.v): 0; antitumor activity level by NCI criteria (B16 murine melanoma [1]; 50 mg/kg/i.p): weak activity (T/C=125-150, weak activity)"

# Reference: patent US6864275B1, “Compounds and methods for use thereof in the treatment of cancer” (UAF Technologies and Research, LLC, priority 1997, dated 2005)
